According to patent publication US10189859B2, “Derivatives of 6-(2,3-dichlorophenyl)-1,2,4-triazin-5-amine” (Nektar Therapeutics, priority 2013, dated 2019):

How the values were obtained:
Assay type in all cases: in vivo
[1] = Pharmacokinetics after intravenous or oral dosing, plasma LC/MS/MS; conditions: fasted male Sprague Dawley rats, oral
Method: Fasted, male Sprague Dawley rats were dosed intravenously or orally. Blood samples were collected at pre-determined time points and plasma was separated. Test article concentrations were determined in plasma by a LC/MS/MS method. Non compartmental analysis was performed to estimate the area under the plasma concentration vs. time curve (AUC). Clearance parameters (CL), bioavailabilities (F) and half-lives were calculated.

AFP model = experiment: AFP animal model; conditions: AFP, Ph 2, timepoint 0.25 h
Source text: (§1) The efficacy of the compounds when evaluated in additional well-known animal models, AFP, RR, and hyperalgesia, was also explored.

RR model = experiment: RR animal model
Source text: as §1

exposure after oral dosing (qualitative ranking) [1]: best exposure after oral dosing
SMILES: Nc1nc(NCCOCCOC(F)(F)F)nnc1-c1cccc(Cl)c1Cl [Compound 45, 6-(2,3-Dichlorophenyl)-N^3-(2-(2-(trifluoromethoxy)ethoxy)ethyl)-1,2,4-triazine-3,5-diamine]
MED (mg/kg) (AFP model; minimum effective dose): 30 (Ph 2) mg/kg
ED50 (AFP model; read-out: ED50): 46.8 mg/kg
ED50 (RR model; 0.5 h): 21 mg/kg
ED50 (RR model; 1 h): 18.9 mg/kg
MED (RR model; timepoints 0.5, 1 h, minimum effective dose): 30 mg/kg
